From publication PMC4503722, “Novel Phenotypic Outcomes Identified for a Public Collection of Approved Drugs from a Publicly Accessible Panel of Assays” (PLoS ONE, 2015)

Experiments:
SW480 = assay: cells; type: cell-based; settings: basal
HeLa cells = assay: cells; type: cell-based; settings: for Hela CellCycMod PI 2N IC50/EC50: assay number 14; for Hela CellCycMod PI S Phase IC50/EC50: assay number 15; for Hela CellCycMod PI 4N IC50/EC50: assay number 16; for Hela CellCycMod PI MI IC50/EC50: assay number 17; for Hela CellCycMod PI Cell Number IC50/EC50: assay number 18
HT-29 = assay: cells; type: cell-based; settings: basal
HCT116 = assay: cells; type: cell-based; settings: basal
[1] = system: alkaline phosphatase (ALP) activity in C2C12 cells; type: cell-based; settings: concentration response; for WntCondMedia_Alk Phos C2C12 IC50/EC50: assay number 6
hJAK2 = target: T1, hJAK2 (Homo sapiens, UniProt O60674); assay: Cerep LANCE kinase assay hJAK2 (S1 assay 33); type: biochemical; settings: for hJAK2 LANCE IC50/EC50: assay number 33
T1 construct: purchased Cerep (LANCE kinase assay platform, contract assay)
T1 sequence (O60674 whole entry): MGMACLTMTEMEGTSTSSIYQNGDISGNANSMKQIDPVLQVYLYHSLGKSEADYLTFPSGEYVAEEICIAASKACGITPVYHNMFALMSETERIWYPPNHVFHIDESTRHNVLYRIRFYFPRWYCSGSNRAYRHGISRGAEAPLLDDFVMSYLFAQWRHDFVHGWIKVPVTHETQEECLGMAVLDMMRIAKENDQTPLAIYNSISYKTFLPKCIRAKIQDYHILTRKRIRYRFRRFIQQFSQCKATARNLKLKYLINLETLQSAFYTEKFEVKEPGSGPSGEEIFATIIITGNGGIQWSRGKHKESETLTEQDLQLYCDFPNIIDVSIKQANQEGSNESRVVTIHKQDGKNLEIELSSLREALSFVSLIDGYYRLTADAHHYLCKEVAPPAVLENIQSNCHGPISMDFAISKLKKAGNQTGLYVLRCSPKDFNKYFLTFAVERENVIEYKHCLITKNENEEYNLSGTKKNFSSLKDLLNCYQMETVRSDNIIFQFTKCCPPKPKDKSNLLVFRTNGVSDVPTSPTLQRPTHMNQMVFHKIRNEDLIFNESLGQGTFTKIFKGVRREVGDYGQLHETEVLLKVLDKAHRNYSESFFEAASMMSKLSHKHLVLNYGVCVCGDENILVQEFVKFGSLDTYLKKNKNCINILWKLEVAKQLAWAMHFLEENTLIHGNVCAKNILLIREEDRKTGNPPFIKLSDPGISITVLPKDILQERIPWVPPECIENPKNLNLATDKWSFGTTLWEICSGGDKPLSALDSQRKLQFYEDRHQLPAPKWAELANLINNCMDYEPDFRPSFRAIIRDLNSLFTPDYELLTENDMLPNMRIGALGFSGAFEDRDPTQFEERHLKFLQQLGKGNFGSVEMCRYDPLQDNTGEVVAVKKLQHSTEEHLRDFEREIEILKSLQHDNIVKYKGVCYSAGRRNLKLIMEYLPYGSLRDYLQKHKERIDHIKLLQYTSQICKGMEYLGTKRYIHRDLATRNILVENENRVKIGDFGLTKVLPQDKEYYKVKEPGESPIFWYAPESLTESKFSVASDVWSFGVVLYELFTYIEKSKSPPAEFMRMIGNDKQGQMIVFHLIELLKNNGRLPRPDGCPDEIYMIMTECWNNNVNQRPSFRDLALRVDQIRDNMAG

Colo320 = assay: cells; type: cell-based; settings: basal
hKDR = target: T2, hKDR (Homo sapiens, UniProt P35968); assay: Cerep LANCE kinase assay hKDR (S1 assay 32); type: biochemical; settings: for hKDR LANCE IC50/EC50: assay number 32
T2 construct: purchased Cerep (LANCE kinase assay platform, contract assay)
T2 sequence (P35968 20-1356): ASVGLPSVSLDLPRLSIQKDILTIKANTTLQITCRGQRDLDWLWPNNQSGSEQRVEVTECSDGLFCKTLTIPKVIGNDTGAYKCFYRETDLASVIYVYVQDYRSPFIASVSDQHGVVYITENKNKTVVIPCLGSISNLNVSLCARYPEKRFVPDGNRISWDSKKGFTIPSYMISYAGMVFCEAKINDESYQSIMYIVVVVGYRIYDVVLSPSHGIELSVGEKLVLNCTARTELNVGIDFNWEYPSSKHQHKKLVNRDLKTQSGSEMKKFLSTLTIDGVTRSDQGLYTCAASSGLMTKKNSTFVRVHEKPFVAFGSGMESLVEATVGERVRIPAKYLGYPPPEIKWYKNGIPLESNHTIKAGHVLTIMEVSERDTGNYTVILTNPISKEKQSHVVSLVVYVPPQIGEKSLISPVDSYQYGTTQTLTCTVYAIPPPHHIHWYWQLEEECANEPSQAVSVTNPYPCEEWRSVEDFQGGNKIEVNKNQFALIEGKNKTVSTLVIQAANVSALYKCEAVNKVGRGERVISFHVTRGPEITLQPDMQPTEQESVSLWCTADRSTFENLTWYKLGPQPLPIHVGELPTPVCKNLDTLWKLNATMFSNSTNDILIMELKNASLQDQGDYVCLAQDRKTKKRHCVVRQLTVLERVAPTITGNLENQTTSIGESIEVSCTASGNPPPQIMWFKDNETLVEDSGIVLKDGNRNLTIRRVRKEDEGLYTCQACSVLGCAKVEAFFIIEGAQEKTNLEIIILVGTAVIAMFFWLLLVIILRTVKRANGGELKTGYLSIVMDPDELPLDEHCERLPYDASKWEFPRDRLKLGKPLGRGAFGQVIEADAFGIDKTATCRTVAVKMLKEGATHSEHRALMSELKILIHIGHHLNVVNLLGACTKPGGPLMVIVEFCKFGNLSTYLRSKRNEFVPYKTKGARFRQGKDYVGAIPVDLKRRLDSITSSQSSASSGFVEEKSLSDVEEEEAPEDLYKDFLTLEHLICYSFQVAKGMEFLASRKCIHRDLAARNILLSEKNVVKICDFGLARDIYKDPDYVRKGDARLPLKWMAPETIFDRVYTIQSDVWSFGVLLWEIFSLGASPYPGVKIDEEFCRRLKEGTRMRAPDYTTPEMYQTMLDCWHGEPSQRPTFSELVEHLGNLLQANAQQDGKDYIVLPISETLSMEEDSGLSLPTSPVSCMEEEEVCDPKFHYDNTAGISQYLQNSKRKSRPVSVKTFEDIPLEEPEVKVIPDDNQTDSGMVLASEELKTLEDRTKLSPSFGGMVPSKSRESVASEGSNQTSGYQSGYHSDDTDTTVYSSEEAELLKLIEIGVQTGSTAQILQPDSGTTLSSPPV

RKO = assay: cells; type: cell-based; settings: basal
[2] = system: ECFC/ADSC co-culture cell nuclei number
[3] = system: nuclear β-catenin in C2C12 cells; assay: cells; type: cell-based; settings: concentration response; for WntCondMedia_bCatenin C2C12 IC50/EC50: assay number 5
SNU-C1 = assay: cells; type: cell-based; settings: basal
hp70S6K1 (RPS6KB1) = target: T3, hp70S6K1 (RPS6KB1) (Homo sapiens, UniProt P23443); assay: Cerep LANCE kinase assay hp70S6K1 (S1 assay 31); type: biochemical; settings: for hp70S6K1 LANCE IC50/EC50: assay number 31
T3 construct: purchased Cerep (LANCE kinase assay platform, contract assay)
T3 sequence (P23443 whole entry): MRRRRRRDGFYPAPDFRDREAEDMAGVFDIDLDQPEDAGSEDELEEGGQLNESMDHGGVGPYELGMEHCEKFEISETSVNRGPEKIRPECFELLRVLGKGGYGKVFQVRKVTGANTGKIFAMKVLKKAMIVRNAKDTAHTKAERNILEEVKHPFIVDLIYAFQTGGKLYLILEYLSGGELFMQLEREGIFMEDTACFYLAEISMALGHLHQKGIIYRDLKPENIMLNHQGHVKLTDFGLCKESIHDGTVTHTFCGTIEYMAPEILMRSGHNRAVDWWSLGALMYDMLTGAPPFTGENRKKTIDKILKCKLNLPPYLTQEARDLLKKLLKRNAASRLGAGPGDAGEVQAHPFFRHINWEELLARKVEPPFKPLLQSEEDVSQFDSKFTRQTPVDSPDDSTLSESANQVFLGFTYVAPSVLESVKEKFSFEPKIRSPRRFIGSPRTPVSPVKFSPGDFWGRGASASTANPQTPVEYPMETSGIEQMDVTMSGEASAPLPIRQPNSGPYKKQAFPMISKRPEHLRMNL

hGSK3b = target: T4, hGSK3b (Homo sapiens, UniProt P49841); assay: Cerep LANCE kinase assay hGSK3b (S1 assay 34); type: biochemical; settings: for hGSK3b LANCE IC50/EC50: assay number 34
T4 construct: purchased Cerep (LANCE kinase assay platform, contract assay)
T4 sequence (P49841 whole entry): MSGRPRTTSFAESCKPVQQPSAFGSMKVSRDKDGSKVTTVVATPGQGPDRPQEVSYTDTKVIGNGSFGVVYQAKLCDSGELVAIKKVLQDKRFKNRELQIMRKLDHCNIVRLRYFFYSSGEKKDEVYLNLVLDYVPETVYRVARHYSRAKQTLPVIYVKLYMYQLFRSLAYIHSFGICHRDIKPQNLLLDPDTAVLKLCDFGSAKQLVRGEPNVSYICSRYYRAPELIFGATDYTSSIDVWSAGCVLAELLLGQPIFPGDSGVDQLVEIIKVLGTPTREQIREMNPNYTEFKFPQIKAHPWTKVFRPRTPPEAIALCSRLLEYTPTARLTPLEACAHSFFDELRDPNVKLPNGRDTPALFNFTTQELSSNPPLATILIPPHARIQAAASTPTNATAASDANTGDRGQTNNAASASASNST

[4] = system: endothelial tube formation in co-cultures of ECFCs and ADSCs treated with VEGF; assay: cells; type: cell-based, human
hFLT3 = target: T5, hFLT3 (Homo sapiens, UniProt P36888); assay: Cerep LANCE kinase assay hFLT3 (S1 assay 35); type: biochemical; settings: for hFLT3 LANCE IC50/EC50: assay number 35
T5 construct: purchased Cerep (LANCE kinase assay platform, contract assay)
T5 sequence (P36888 27-993): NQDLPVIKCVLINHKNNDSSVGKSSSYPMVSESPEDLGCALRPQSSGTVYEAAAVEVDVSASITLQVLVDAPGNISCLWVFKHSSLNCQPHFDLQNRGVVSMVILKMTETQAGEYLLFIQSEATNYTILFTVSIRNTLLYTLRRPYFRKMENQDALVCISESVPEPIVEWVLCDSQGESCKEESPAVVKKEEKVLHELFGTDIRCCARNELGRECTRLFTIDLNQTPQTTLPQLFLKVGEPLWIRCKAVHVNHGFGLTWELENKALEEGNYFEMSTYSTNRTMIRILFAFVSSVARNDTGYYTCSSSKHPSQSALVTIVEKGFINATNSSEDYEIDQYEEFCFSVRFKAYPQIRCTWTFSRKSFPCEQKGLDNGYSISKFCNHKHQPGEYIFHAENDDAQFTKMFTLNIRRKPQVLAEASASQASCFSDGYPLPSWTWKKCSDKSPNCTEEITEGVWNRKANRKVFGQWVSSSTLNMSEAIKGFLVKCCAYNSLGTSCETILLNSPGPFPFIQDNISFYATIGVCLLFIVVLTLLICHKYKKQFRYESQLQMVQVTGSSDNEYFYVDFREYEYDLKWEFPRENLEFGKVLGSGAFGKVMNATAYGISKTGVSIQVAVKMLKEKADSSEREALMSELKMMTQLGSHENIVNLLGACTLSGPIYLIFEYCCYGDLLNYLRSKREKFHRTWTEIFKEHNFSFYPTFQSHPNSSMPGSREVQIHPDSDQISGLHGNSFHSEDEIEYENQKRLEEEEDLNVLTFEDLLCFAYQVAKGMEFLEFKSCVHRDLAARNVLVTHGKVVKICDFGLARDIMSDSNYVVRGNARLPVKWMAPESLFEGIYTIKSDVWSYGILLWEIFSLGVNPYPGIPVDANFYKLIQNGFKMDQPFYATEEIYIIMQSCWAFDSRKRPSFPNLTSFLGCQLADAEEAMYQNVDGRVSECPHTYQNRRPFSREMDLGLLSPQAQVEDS

DLD-1 = assay: cells; type: cell-based; settings: assay number 23; basal
[5] = system: HCT116 cells treated with a GSK3β inhibitor; assay: cells; type: cell-based; settings: assay number 26; GSK3b inhibitor pretreated

Row | SMILES | Hela CellCycMod PI 2N IC50/EC50 (HeLa cells; 2N) | Hela CellCycMod PI S Phase IC50/EC50 (HeLa cells) | Hela CellCycMod PI 4N IC50/EC50 (HeLa cells; 4N) | Hela CellCycMod PI MI IC50/EC50 (HeLa cells; MI) | Hela CellCycMod PI Cell Number IC50/EC50 (HeLa cells) | WntCondMedia_Alk Phos C2C12 IC50/EC50 [1] | hJAK2 LANCE IC50/EC50 (hJAK2) | hKDR LANCE IC50/EC50 (hKDR) | WntCondMedia_bCatenin C2C12 IC50/EC50 [3] | hp70S6K1 LANCE IC50/EC50 (hp70S6K1 (RPS6KB1)) | hGSK3b LANCE IC50/EC50 (hGSK3b) | hFLT3 LANCE IC50/EC50 (hFLT3) | VEGF_ADSC\ECFC Angio Hoechst NucArea IC50/EC50 [2] | VEGF_ADSC\ECFC Angio CD31 TubeArea IC50/EC50 [4] | further results
1 | COC(=O)Nc1nc2ccc(C(=O)C3CC3)cc2[nH]1 [NCGC00262953-01] |  |  |  |  |  |  |  |  |  |  |  |  |  |  | IC50/EC50, Basal_Viability ATP SW480 (assay number 24) (SW480): > 20 µM; IC50/EC50, Hela CellCycMod PI 2N (assay number 14) (HeLa cells; 2N): 0.4173 µM; IC50/EC50, Hela CellCycMod PI 4N (assay number 16) (HeLa cells; 4N): 0.4164 µM; IC50/EC50, Hela CellCycMod PI Cell Number (assay number 18) (HeLa cells; Cell Number): 0.2969 µM; IC50/EC50, Hela CellCycMod PI MI (assay number 17) (HeLa cells; MI): 0.4024 µM; IC50/EC50, Hela CellCycMod PI S Phase (assay number 15) (HeLa cells; S Phase): > 10 µM; IC50/EC50, Basal_Viability ATP HT-29 (assay number 28) (HT-29): 1.6823 µM; IC50/EC50, Basal_Viability ATP HCT116 (assay number 25) (HCT116): 0.1735 µM; IC50/EC50, WntCondMedia_Alk Phos C2C12 (assay number 6) [1]: 0.6836 µM; IC50/EC50, hJAK2 LANCE (assay number 33) (hJAK2): > 20 µM; IC50/EC50, Basal_Viability ATP Colo 320 (assay number 27) (Colo320): 0.1556 µM; IC50/EC50, hKDR LANCE (assay number 32) (hKDR): 15.14 µM; IC50/EC50, Basal_Viability ATP RKO (assay number 29) (RKO): 0.1622 µM; IC50/EC50, VEGF_ADSC\ECFC Angio Hoechst NucArea (assay number 3) [2]: > 10 µM; IC50/EC50, WntCondMedia_bCatenin C2C12 (assay number 5) [3]: 0.3486 µM; IC50/EC50, Basal_Viability ATP SNU-C1 (assay number 30) (SNU-C1): > 20 µM; IC50/EC50, hp70S6K1 LANCE (assay number 31) (hp70S6K1 (RPS6KB1)): > 20 µM; IC50/EC50, hGSK3b LANCE (assay number 34) (hGSK3b): 14.94 µM; IC50/EC50, VEGF_ADSC\ECFC Angio CD31 TubeArea (assay number 2) [4]: 1.1914 µM; IC50/EC50, hFLT3 LANCE (assay number 35) (hFLT3): 6.14 µM
2 | Cc1nc(N)nc(N)c1-c1ccc(Cl)c(Cl)c1 [NCGC00253626-01] | > 10 µM | > 10 µM | > 10 µM | > 10 µM | 1.0068 µM | 0.0299 µM | > 20 µM | > 20 µM | 0.0504 µM | > 20 µM | > 20 µM | > 20 µM |  |  | Basal_Viability ATP SW480 IC50/EC50 (SW480; assay number 24): 0.512 µM; Basal_Viability ATP HT-29 IC50/EC50 (HT-29; assay number 28): 0.9316 µM; Basal_Viability ATP HCT116 IC50/EC50 (HCT116; assay number 25): 0.4134 µM; Basal_Viability ATP DLD-1 IC50/EC50 (DLD-1): 0.6337 µM; Basal_Viability ATP Colo 320 IC50/EC50 (Colo320; assay number 27): 2.03 µM; Basal_Viability ATP RKO IC50/EC50 (RKO; assay number 29): 0.1171 µM; GSK3b inh pretreated_Viability ATP HCT116 IC50/EC50 [5]: 0.05888 µM; Basal_Viability ATP SNU-C1 IC50/EC50 (SNU-C1; assay number 30): 2.165 µM
3 | CCCOc1ccc2nc(NC(=O)OC)[nH]c2c1 [NCGC00018238-09] | 0.0622 µM |  | 0.0567 µM | 0.0775 µM | 0.0467 µM | 0.0881 µM | > 20 µM | > 20 µM | 0.3653 µM | > 20 µM | > 20 µM | > 20 µM | > 10 µM | 0.3276 µM | 
4 | CC(=O)[C@]1(O)Cc2c(O)c3c(c(O)c2[C@@H](O[C@H]2C[C@H](N)[C@H](O)[C@H](C)O2)C1)C(=O)c1ccccc1C3=O [NCGC00093976-08] | 0.0111 µM | > 10 µM | > 10 µM | 0.6593 µM | 0.0142 µM | 0.5039 µM | > 20 µM | > 20 µM | 0.1001 µM | > 20 µM | > 20 µM | > 20 µM | 0.5381 µM | 0.0208 µM | 
5 | CCCCC1C(=O)N(c2ccccc2)N(c2ccc(O)cc2)C1=O (stereo not drawn) [NCGC00094748-07] | > 10 µM | > 10 µM | > 10 µM | > 10 µM | 1.6628 µM | 4.9189 µM | > 20 µM | > 20 µM | > 20 µM | > 20 µM | > 20 µM | > 20 µM | 8.826 µM | 3.2937 µM | 
